Experimental findings from patent US20150025077A1 (COYOTE PHARMACEUTICALS, INC., priority 2012, published 2015) are described below.

The first assay has as its system HSP70. In words: HSP70 levels in Neuro 2a cells, ELISA. The assay is classed as cell-based, mouse. The note with it: 10 nM, 48 hrs compound then 24 hrs GGTI-298. How it is done: Mouse neuroblastoma 2a cells were cultured in DMEM with 10% FBS for 24 hrs. […] After 24 hrs cells were harvested and lysates were prepared and analyzed by ELISA for HSP70. Compound ID numbers in table refer to structures in Table 1 and Table 2.
(An ELISA detects its analyte on a solid surface through an enzyme-linked reagent.)
With `CC(C)=CCC/C(C)=C/CC/C(C)=C/COC(=S)NC1CC1` [Compound 9d, Cyclopropyl 2E, 6E-farnesyl thiocarbamate], the “HSP70 level, ELISA signal (absence of compounds normalized as 1.00)” value is 1.05. On to `CC(C)=CCC/C(C)=C/CC/C(C)=C/COC(=S)NCCCN1CCOCC1` [Compound 9k, Morpholinyl-N-3′-propyl 2E, 6E-farnesyl thiocarbamate], for which the “HSP70 level, ELISA signal (absence of compounds normalized as 1.00)” value was 1.13.

The assay is the same for the next values; noted with them: 100 nM, 48 hrs compound then 24 hrs GGTI-298.
For `CC(C)=CCC/C(C)=C/CC/C(C)=C/CC/C(C)=C/COC(=S)Nc1ccccc1` [Compound 10k, Phenyl 2E,6E,10E-geranylgeranyl thiocarbamate], the “HSP70 level, ELISA signal (absence of compounds normalized as 1.00)” value was 1.11. As for `CC(C)=CCC/C(C)=C/CC/C(C)=C/c1ncc(C)o1` [Compound 15, 5-methyl-2-((1E,5E)-2,6,10-trimethylundeca-1,5,9-trien-1-yl)oxazole], the “HSP70 level, ELISA signal (absence of compounds normalized as 1.00)” value is 1.08. Still for that read-out and setting: the figure for `CC(C)=CCC/C(C)=C/CC/C(C)=C/CC/C(C)=C/CN(C)C1CCCCC1` [Compound 17a, N-Cyclohexyl N-Methyl-2E,6E,10E-Geranylgeranyl amine] is 1.09.

Regarding `CC(C)=CCC/C(C)=C/CC/C(C)=C/CC/C(C)=C/CNCCCOC(C)C` [Compound 17d], the “HSP70 level, ELISA signal (absence of compounds normalized as 1.00)” value is reported as 1.01. On the same count and under the same terms, the figure for `CCNC(=O)OC(C)CC/C=C(\C)CC/C=C(\C)CCC=C(C)C` (centres unmarked) [Compound 20a, Ethyl 5E,9E-farnesyl prop-2-yl carbamate] is 0.91. Same read-out and setting: the same measure for `CC(C)=CCC/C(C)=C/CC/C(C)=C/CC/C(C)=C/C1=N[C@H](C)CO1` [Compound 27d, (R)-4-methyl-2-((1E,5E,9E)-2,6,10,14-tetramethylpentadeca-1,5,9,13-tetraen-1-yl)-4,5-dihydrooxazole]: 1.04.

The same assay, now with this note: 10uM, 48 hrs compound then 24 hrs GGTI-298.
For `CCOC(=O)CNC(=O)OC/C=C(\C)CC/C=C(\C)CCC=C(C)C` [Compound 8k, Carboethoxymethyl 2E, 6E-farnesyl carbamate], the “HSP70 level, ELISA signal (absence of compounds normalized as 1.00)” value was 0.99. The same measure, in the same setting: the same measure for `CC(C)=CCC/C(C)=C/CC/C(C)=C/COC(=O)Nc1ccc(C)cc1` [Compound 8l, p-Tolyl 2E, 6E-farnesyl carbamate]: 1.03; for `CC(C)=CCC/C(C)=C/CC/C(C)=C/COC(=O)Nc1ccc(C(F)(F)F)cc1` [Compound 8n, p-Trifluoromethylphenyl 2E, 6E-farnesyl carbamate]: 1.02. As to `CCNC(=S)OC/C=C(\C)CC/C=C(\C)CCC=C(C)C` [Compound 9a, Ethyl 2E, 6E-farnesyl thiocarbamate], the “HSP70 level, ELISA signal (absence of compounds normalized as 1.00)” value is recorded as 0.94. On the same count and under the same terms, the figure for `CCC(C)NC(=S)OC/C=C(\C)CC/C=C(\C)CCC=C(C)C` (centres unmarked) [Compound 9b, sec-Butyl 2E, 6E-farnesyl thiocarbamate] is 0.99. On the same count and under the same terms, the figure for `CCCCNC(=S)OC/C=C(\C)CC/C=C(\C)CCC=C(C)C` [Compound 9c, n-Butyl 2E, 6E-farnesyl thiocarbamate] is 0.96. The same measure, in the same setting: the same measure for `CC(C)=CCC/C(C)=C/CC/C(C)=C/COC(=S)NC1CC1` [Compound 9d, Cyclopropyl 2E, 6E-farnesyl thiocarbamate]: 0.95.

For the molecule `CC(C)=CCC/C(C)=C/CC/C(C)=C/COC(=S)NCCCN1CCOCC1` [Compound 9k, Morpholinyl-N-3′-propyl 2E, 6E-farnesyl thiocarbamate], the “HSP70 level, ELISA signal (absence of compounds normalized as 1.00)” value turned out to be 0.97. Take `CNC(=S)OC/C=C(\C)CC/C=C(\C)CC/C=C(\C)CCC=C(C)C` [Compound 10a, Methyl 2E,6E,10E-geranylgeranyl thiocarbamate]: the “HSP70 level, ELISA signal (absence of compounds normalized as 1.00)” value is listed as 1.17.

Turning to `CCC(C)NC(=S)OC/C=C(\C)CC/C=C(\C)CC/C=C(\C)CCC=C(C)C` (centres unmarked) [Compound 10c, sec-Butyryl 2E,6E,10E-geranylgeranyl thiocarbamate], the “HSP70 level, ELISA signal (absence of compounds normalized as 1.00)” value is on record as 1.53.

As for `CC(=O)NC(=S)OC/C=C(\C)CC/C=C(\C)CC/C=C(\C)CCC=C(C)C` [Compound 10g, Acetyl 2E,6E,10E-geranylgeranyl thiocarbamate], the “HSP70 level, ELISA signal (absence of compounds normalized as 1.00)” value is recorded as 1.60. Regarding `CCCCCCNC(=S)OC/C=C(\C)CC/C=C(\C)CC/C=C(\C)CCC=C(C)C` [Compound 10h, n-Hexyl 2E,6E,10E-geranylgeranyl thiocarbamate], the “HSP70 level, ELISA signal (absence of compounds normalized as 1.00)” value is listed as 1.58. The same measure, in the same setting: the same measure for `CC(C)=CCC/C(C)=C/CC/C(C)=C/c1cnco1` [Compound 12, 5-((1E,5E)-2,6,10-trimethylundeca-1,5,9-trien-1-yl)oxazole]: 1.01; for `CC(C)=CCC/C(C)=C/CC/C(C)=C/CC/C(C)=C/c1ncc(C)o1` [Compound 16, 5-methyl-2-((1E,5E,9E)-2,6,10,14-tetramethylpentadeca-1,5,9,13-tetraen-1-yl)oxazole]: 0.89. With `CC(C)=CCC/C(C)=C/CC/C(C)=C/CC/C(C)=C/CN(C)C1CCCCC1` [Compound 17a, N-Cyclohexyl N-Methyl-2E,6E,10E-Geranylgeranyl amine], the “HSP70 level, ELISA signal (absence of compounds normalized as 1.00)” value is 1.22. On the same count and under the same terms, the same measure for `CCCCCN(C)C/C=C(\C)CC/C=C(\C)CC/C=C(\C)CCC=C(C)C` [Compound 17b, N-Methyl-N-n-pentyl-2E,6E,10E-Geranylgeranyl amine]: 1.08; for `CCCCCCCN(C)C/C=C(\C)CC/C=C(\C)CC/C=C(\C)CCC=C(C)C` [Compound 17c, N-Heptyl-N-Methyl-2E,6E,10E-Geranylgeranyl amine]: 1.01. Regarding `CC(C)=CCC/C(C)=C/CC/C(C)=C/CC/C(C)=C/CNC12CC3CC(CC(C3)C1)C2` [Compound 17e, N-Adamantyl-2E,6E,10E-Geranylgeranyl amine], the “HSP70 level, ELISA signal (absence of compounds normalized as 1.00)” value was 1.06. On to `CC(C)=CCC/C(C)=C/CC/C(C)=C/CC/C(C)=C/C1=N[C@@H](CC(C)C)CO1` [Compound 27c, (S)-4-isobutyl-2-((1E,5E,9E)-2,6,10,14-tetramethylpentadeca-1,5,9,13-tetraen-1-yl)-4,5-dihydrooxazole], for which the “HSP70 level, ELISA signal (absence of compounds normalized as 1.00)” value came to 0.95.

Consider `CC(C)=CCC/C(C)=C/CC/C(C)=C/CC/C(C)=C/C1=N[C@H](C)CO1` [Compound 27d, (R)-4-methyl-2-((1E,5E,9E)-2,6,10,14-tetramethylpentadeca-1,5,9,13-tetraen-1-yl)-4,5-dihydrooxazole], for which the “HSP70 level, ELISA signal (absence of compounds normalized as 1.00)” value amounted to 1.37. Still for that read-out and setting: the figure for `CC(C)=CCC/C(C)=C/CC/C(C)=C/CC/C(C)=C/C1=N[C@H](C(C)C)CO1` [Compound 27e, (R)-4-isopropyl-2-((1E,5E,9E)-2,6,10,14-tetramethylpentadeca-1,5,9,13-tetraen-1-yl)-4,5-dihydrooxazole] is 1.11; for `CC(C)=CCC/C(C)=C/CC/C(C)=C/CC/C(C)=C/C1=N[C@H](CC(C)C)CO1` [Compound 27f, (R)-4-isobutyl-2-((1E,5E,9E)-2,6,10,14-tetramethylpentadeca-1,5,9,13-tetraen-1-yl)-4,5-dihydrooxazole] it is 0.91. As to `CC(C)=CCC/C(C)=C/CC/C(C)=C/CC/C(C)=C/c1nnc(-c2ccccc2)o1` [Compound 29a, 2-phenyl-5-((1E,5E,9E)-2,6,10,14-tetramethylpentadeca-1,5,9,13-tetraen-1-yl)-1,3,4-oxadiazole], the “HSP70 level, ELISA signal (absence of compounds normalized as 1.00)” value amounted to 1.22. Still for that read-out and setting: the same measure for `COc1ccc(-c2nnc(/C=C(\C)CC/C=C(\C)CC/C=C(\C)CCC=C(C)C)o2)cc1` [Compound 29c, 2-(4-methoxyphenyl)-5-((1E,5E,9E)-2,6,10,14-tetramethylpentadeca-1,5,9,13-tetraen-1-yl)-1,3,4-oxadiazole]: 1.06; for `COc1ccc(-c2nnc(/C=C(\C)CC/C=C(\C)CC/C=C(\C)CCC=C(C)C)o2)cc1OC` [Compound 29d, 2-(3,4-dimethoxyphenyl)-5-((1E,5E,9E)-2,6,10,14-tetramethylpentadeca-1,5,9,13-tetraen-1-yl)-1,3,4-oxadiazole]: 1.12; for `CC(C)=CCC/C(C)=C/CC/C(C)=C/CC/C(C)=C/c1nnc(-c2cccnc2)o1` [Compound 29e, 2-(pyridin-3-yl)-5-((1E,5E,9E)-2,6,10,14-tetramethylpentadeca-1,5,9,13-tetraen-1-yl)-1,3,4-oxadiazole]: 1.10. Same read-out and setting: the same measure for `CC(C)=CCC/C(C)=C/CC/C(C)=C/CC/C(C)=C/c1nnc(-c2ccncc2)o1` [Compound 29f, 2-(pyridin-4-yl)-5-((1E,5E,9E)-2,6,10,14-tetramethylpentadeca-1,5,9,13-tetraen-1-yl)-1,3,4-oxadiazole]: 1.01; for `CC(C)=CCC/C(C)=C/c1nc(-c2ccccc2)co1` [Compound 32, (E)-2-(2,6-dimethylhepta-1,5-dien-1-yl)-4-phenyloxazole]: 0.96. `CC(C)=CCC/C(C)=C/c1nc(-c2cccnc2)no1` [Compound 35a, (E)-5-(2,6-dimethylhepta-1,5-dien-1-yl)-3-(pyridin-3-yl)-1,2,4-oxadiazole]: the “HSP70 level, ELISA signal (absence of compounds normalized as 1.00)” value is listed as 1.08. Turning to `CC(C)=CCC/C(C)=C/c1nc(-c2ccc(F)cc2)no1` [Compound 35b, (E)-5-(2,6-dimethylhepta-1,5-dien-1-yl)-3-(4-fluorophenyl)-1,2,4-oxadiazole], the “HSP70 level, ELISA signal (absence of compounds normalized as 1.00)” value stood at 0.95.

With `CC(C)=CCC/C(C)=C/c1nc(-c2ccccc2)no1` [Compound 35c, (E)-5-(2,6-dimethylhepta-1,5-dien-1-yl)-3-phenyl-1,2,4-oxadiazole], the “HSP70 level, ELISA signal (absence of compounds normalized as 1.00)” value is reported as 1.04. For `CC(C)=CCC/C(C)=C/c1nc(-c2ccncc2)no1` [Compound 35d, (E)-5-(2,6-dimethylhepta-1,5-dien-1-yl)-3-(pyridin-4-yl)-1,2,4-oxadiazole], the “HSP70 level, ELISA signal (absence of compounds normalized as 1.00)” value amounted to 1.05. Still for that read-out and setting: the figure for `CC(C)=CCC/C(C)=C/CC/C(C)=C/CC/C(C)=C/C1=N[C@@H](C(C)C)C(=O)O1` [Compound 37b, (S)-4-isopropyl-2-((1E,5E,9E)-2,6,10,14-tetramethylpentadeca-1,5,9,13-tetraen-1-yl)oxazol-5(4H)-one] is 0.89.
